Values of other authors, collected in paper PMC7673724 (Science Advances, 2020).

System: Rubisco
Settings: control used to normalize array signal (one unit of binding)

TRSVLPANWRQELESLRN [control EPYC1 peptide]
Binding to Rubisco of the positive control peptide: known to bind to Rubisco
